SMILES strings stand for the structures.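 Step 1: Grow cells in 96-well plates. Step 2: Expose to compound for 48 hours at 5 concentrations. Step 3: Interpolate endpoints linearly; if unreached, use highest concentration. At the GI50, growth is halved. TGI is the concentration that stops growth completely.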

The first test deals with HS 578T breast. As to the kind of experiment: NCI tumour cell line growth inhibition, 48 h.
As for `S=C(N/N=C\C=N/NC(=S)N1CCCCC1)N1CCCCC1`, the TGI was over 51.9 µM.

For the compound `CN1C(=O)C2C(=O)N(Cc3ccccc3)CC(=O)N2c2cccnc21` (centres undefined), the TGI was over 100 µM.

As to `C=C1CC(COc2cc(=O)oc3ccccc23)(c2ccccc2)OC1=O` (centres undefined), the TGI stood at 27.5 µM.

Turning to `CN(C)CCCOc1nc2c(c(=O)n(C)c(=O)n2C)n1C` (tested in a mixture with another compound), the TGI is over 100 µM.

The compound `C[N+]1=C2[B-](C(C)(C)C)=[N+](C(C)(C)C)[B-]2(C(C)(C)C)[N+](C)=C2[B-](C(C)(C)C)=[N+](C(C)(C)C)[B-]21C(C)(C)C` (centres undefined) returned a TGI of over 100 µM.

Take `Brc1ccc(CCNCCN2CCCCC2)cc1`: the TGI was 38.1 µM.

Regarding `Cc1ccc(C(=O)Nc2ccc(CP(=O)(O)O)cc2CP(=O)(O)O)cc1NC(=O)c1cccc(N)c1`, the TGI was over 100 µM.

As for `OC1C2[C@@H](O)CCCN2C[C@@H](O)[C@H]1O` (some centres undefined), the TGI was over 100 µM.

Regarding `COCOC1/C=C/CCCC#C[C@H](C)C(=O)CC1` (some centres undefined), the TGI was 46.4 µM.

Consider `CN(C)/N=N/c1nc2c(c(=O)n(C)c(=O)n2C)n1C`, for which the TGI was over 100 µM.

Regarding `COc1ccc2[nH]c(O)c(/C=c3/cc4c(c(-c5cc(OC)c(OC)c(OC)c5)n3)=Nc3ccccc3-4)c2c1`, the GI50 is 9.81 µM and the TGI is over 100 µM.

As to `NCC1CCN(c2nc3ccccc3c3c2CCCC3)CC1`, the TGI is over 100 µM.

Compound `CCN(CC)CCc1c2c(nc3ccccc13)C(=O)c1cccnc1C2=O` registered a TGI of over 100 µM.

Compound `Nc1cc(CO)cc(Nc2nc3ccc(Cl)cc3c3[nH]c4ccccc4c23)c1` yielded a TGI of 36.5 µM.

Take `Cc1c(F)c(N)c2c(=O)cc(-c3ccc(NC(=O)CN(C)C)c(F)c3)oc2c1F`: the TGI was over 100 µM.

Compound `COc1ccccc1Nc1nc(N)nc(N)c1N=O` registered a TGI of over 100 µM.

`COc1cccc2c(N)c3cccc(C(=O)NCCN(C)C)c3nc12` came in with a TGI of 0.571 µM.

`CCN1CC2=C(NC(=S)NC2c2ccc(Cl)cc2)/C(=C/c2ccc(Cl)cc2)C1` (centres undefined): the TGI was over 100 µM.

`O=C(/C=C/c1ccc(O)c([N+](=O)[O-])c1)CC(=O)/C=C/c1ccc(O)c([N+](=O)[O-])c1` came in with a TGI of over 100 µM.

On to `OCC1CCCCCCCCCCC12SCCCS2` (centres undefined), for which the TGI is over 100 µM.

Compound `C=C(C)C12CC(COC(=O)c3ccccc3)C34OC5(OC1C3C1OC1(CO)C(O)C1(O)C(OC(=O)c3ccccc3)C(C)C(C(C)CCCCCCC5O)C14)O2` (centres undefined) displayed a TGI of over 100 µM.

Compound `O=C(O)c1cc2c(cc1CC(Cc1ccc3c(c1)CCC3)C(=O)O)CCC2` (centres undefined) came in with a TGI of over 100 µM.

Consider `CC(C)=CCOC(=O)C(C)=[N+]=[N-]`, for which the TGI is over 100 µM.

Turning to `O=C1C(Cl)=C(N2CCN(C3=C(Cl)C(=O)c4ccccc4C3=O)CC2)C(=O)c2ccccc21`, the TGI came out at 7.12 µM.

Compound `Cc1c(-c2nc3ccccc3[nH]2)c(=O)n(-c2ccccc2)n1C` gave a TGI of over 100 µM.

A further test deals with IGROV1 ovarian. Nature of the test: NCI tumour cell line growth inhibition, 48 h.
`COc1ccc(C2CC(c3c(O)ccc4ccccc34)=NN2c2ccc([N+](=O)[O-])cc2[N+](=O)[O-])cc1OC` (centres undefined) registered a TGI of over 71.2 µM.

Turning to `S=C(N/N=C\C=N/NC(=S)N1CCCCC1)N1CCCCC1`, the TGI was over 52.7 µM.

On to `CN1C(=O)C2C(=O)N(Cc3ccccc3)CC(=O)N2c2cccnc21` (centres undefined), for which the TGI is over 100 µM.

As for `C=C1CC(COc2cc(=O)oc3ccccc23)(c2ccccc2)OC1=O` (centres undefined), the TGI came to 3.07 µM.

`CN(C)CCCOc1nc2c(c(=O)n(C)c(=O)n2C)n1C` (tested in a mixture with another compound) gave a TGI of over 100 µM.

For the compound `C[N+]1=C2[B-](C(C)(C)C)=[N+](C(C)(C)C)[B-]2(C(C)(C)C)[N+](C)=C2[B-](C(C)(C)C)=[N+](C(C)(C)C)[B-]21C(C)(C)C` (centres undefined), the TGI is over 100 µM.

Compound `Brc1ccc(CCNCCN2CCCCC2)cc1` came in with a TGI of 31 µM.

Take `Cc1ccc(C(=O)Nc2ccc(CP(=O)(O)O)cc2CP(=O)(O)O)cc1NC(=O)c1cccc(N)c1`: the TGI is over 100 µM.

`OC1C2[C@@H](O)CCCN2C[C@@H](O)[C@H]1O` (some centres undefined) returned a TGI of over 100 µM.

Compound `COCOC1/C=C/CCCC#C[C@H](C)C(=O)CC1` (some centres undefined) showed a TGI of 22.7 µM.

Regarding `CN(C)/N=N/c1nc2c(c(=O)n(C)c(=O)n2C)n1C`, the TGI was over 100 µM.

`COc1ccc2[nH]c(O)c(/C=c3/cc4c(c(-c5cc(OC)c(OC)c(OC)c5)n3)=Nc3ccccc3-4)c2c1`: the GI50 is over 100 µM and the TGI was over 100 µM.

`NCC1CCN(c2nc3ccccc3c3c2CCCC3)CC1` returned a TGI of 24.5 µM.

Consider `CCN(CC)CCc1c2c(nc3ccccc13)C(=O)c1cccnc1C2=O`, for which the TGI worked out at 5.53 µM.

For `Nc1cc(CO)cc(Nc2nc3ccc(Cl)cc3c3[nH]c4ccccc4c23)c1`, the TGI amounted to 8.93 µM.

In turn, `Cc1c(F)c(N)c2c(=O)cc(-c3ccc(NC(=O)CN(C)C)c(F)c3)oc2c1F` displayed a TGI of over 100 µM.

With `COc1ccccc1Nc1nc(N)nc(N)c1N=O`, the TGI was over 100 µM.

Regarding `COc1cccc2c(N)c3cccc(C(=O)NCCN(C)C)c3nc12`, the TGI amounted to 1.65 µM.

As for `CCN1CC2=C(NC(=S)NC2c2ccc(Cl)cc2)/C(=C/c2ccc(Cl)cc2)C1` (centres undefined), the TGI was over 100 µM.

`O=C(/C=C/c1ccc(O)c([N+](=O)[O-])c1)CC(=O)/C=C/c1ccc(O)c([N+](=O)[O-])c1` registered a TGI of 76.4 µM.

`OCC1CCCCCCCCCCC12SCCCS2` (centres undefined) returned a TGI of over 100 µM.

On to `C=C(C)C12CC(COC(=O)c3ccccc3)C34OC5(OC1C3C1OC1(CO)C(O)C1(O)C(OC(=O)c3ccccc3)C(C)C(C(C)CCCCCCC5O)C14)O2` (centres undefined), for which the TGI is over 100 µM.

On to `O=C(O)c1cc2c(cc1CC(Cc1ccc3c(c1)CCC3)C(=O)O)CCC2` (centres undefined), for which the TGI was over 100 µM.

In turn, `CC(C)=CCOC(=O)C(C)=[N+]=[N-]` came in with a TGI of over 100 µM.

Compound `O=C1C(Cl)=C(N2CCN(C3=C(Cl)C(=O)c4ccccc4C3=O)CC2)C(=O)c2ccccc21` registered a TGI of 4.11 µM.

`Cc1c(-c2nc3ccccc3[nH]2)c(=O)n(-c2ccccc2)n1C` came in with a TGI of over 100 µM.

A further test relates to K-562 leukemia. Nature of the test: NCI tumour cell line growth inhibition, 48 h.
Consider `COc1ccc(C2CC(c3c(O)ccc4ccccc34)=NN2c2ccc([N+](=O)[O-])cc2[N+](=O)[O-])cc1OC` (centres undefined), for which the TGI was found to be 20.2 µM.

For `S=C(N/N=C\C=N/NC(=S)N1CCCCC1)N1CCCCC1`, the TGI is over 100 µM.

With `CN1C(=O)C2C(=O)N(Cc3ccccc3)CC(=O)N2c2cccnc21` (centres undefined), the TGI was over 100 µM.

`C=C1CC(COc2cc(=O)oc3ccccc23)(c2ccccc2)OC1=O` (centres undefined) had a TGI of 3.1 µM.

As for `CN(C)CCCOc1nc2c(c(=O)n(C)c(=O)n2C)n1C` (tested in a mixture with another compound), the TGI was over 100 µM.

The compound `C[N+]1=C2[B-](C(C)(C)C)=[N+](C(C)(C)C)[B-]2(C(C)(C)C)[N+](C)=C2[B-](C(C)(C)C)=[N+](C(C)(C)C)[B-]21C(C)(C)C` (centres undefined) came in with a TGI of over 100 µM.

As to `Brc1ccc(CCNCCN2CCCCC2)cc1`, the TGI is over 100 µM.

As to `Cc1ccc(C(=O)Nc2ccc(CP(=O)(O)O)cc2CP(=O)(O)O)cc1NC(=O)c1cccc(N)c1`, the TGI is over 100 µM.

`OC1C2[C@@H](O)CCCN2C[C@@H](O)[C@H]1O` (some centres undefined) had a TGI of over 100 µM.

`COCOC1/C=C/CCCC#C[C@H](C)C(=O)CC1` (some centres undefined) yielded a TGI of 5.28 µM.

The compound `CN(C)/N=N/c1nc2c(c(=O)n(C)c(=O)n2C)n1C` displayed a TGI of over 100 µM.

The record behind these values is PubChem BioAssay (NCI).
